From patent publication US6610677B2, “Pyrazole compounds useful as protein kinase inhibitors” (Vertex Pharmaceuticals Incorporated, priority 2000, dated 2003)

How the values were obtained:
Aurora-2 = target: T1, Aurora-2 (Homo sapiens, UniProt O14965); experiment: Ki determination for the inhibition of Aurora-2 (coupled enzyme assay); type: biochemical; details: 70 nM Aurora-2, peptide LRRASLG, 30° C
T1 sequence (O14965 1-403): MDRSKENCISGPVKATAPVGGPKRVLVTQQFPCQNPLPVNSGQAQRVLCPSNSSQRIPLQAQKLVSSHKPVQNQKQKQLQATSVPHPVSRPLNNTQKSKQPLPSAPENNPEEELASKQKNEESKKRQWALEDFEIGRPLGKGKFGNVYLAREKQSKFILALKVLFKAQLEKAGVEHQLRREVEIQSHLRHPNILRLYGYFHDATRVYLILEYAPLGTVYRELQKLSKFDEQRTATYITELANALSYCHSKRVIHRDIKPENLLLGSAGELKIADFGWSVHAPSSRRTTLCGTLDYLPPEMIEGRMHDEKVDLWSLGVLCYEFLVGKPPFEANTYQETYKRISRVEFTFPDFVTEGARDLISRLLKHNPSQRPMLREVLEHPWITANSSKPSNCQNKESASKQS
Method: Compounds were screened in the following manner for their ability to inhibit Aurora-2 using a standard coupled enzyme assay (Fox et al (1998) Protein Sci 7, 2249).
To an assay stock buffer solution containing 0.1M HEPES 7.5, 10 mM MgCl2, 1 mM DTT, 25 mM NaCl, 2.5 mM phosphoenolpyruvate, […], 30 mg/ml pyruvate kinase, 10 mg/ml lactate dehydrogenase, […], and 800 μM peptide (LRRASLG, American Peptide, Sunnyvale, Calif.) was added a DMSO solution of a compound of the present invention to a final concentration of 30 μM. The resulting mixture was incubated at 30° C. for 10 min. The reaction was initiated by the addition of 10 μL of Aurora-2 stock solution to give a final concentration of 70 nM in the assay. The rates of reaction were obtained by monitoring absorbance at 340 nm over a 5 minute read time at 30° C. using a BioRad Ultramark plate reader (Hercules, Calif.). The Ki values were determined from the rate data as a function of inhibitor concentration.

GSK-3β (AA 1-420) = target: T2, GSK-3β (AA 1-420) (Homo sapiens, UniProt P49841); experiment: Ki determination for the inhibition of GSK-3 (coupled enzyme system); type: biochemical; details: 20 μM ATP, 300 μM peptide, 20 nM GSK-3β, 30° C
T2 construct: GSK-3β (AA 1-420)
T2 sequence (P49841 whole entry, the tested form may be a part): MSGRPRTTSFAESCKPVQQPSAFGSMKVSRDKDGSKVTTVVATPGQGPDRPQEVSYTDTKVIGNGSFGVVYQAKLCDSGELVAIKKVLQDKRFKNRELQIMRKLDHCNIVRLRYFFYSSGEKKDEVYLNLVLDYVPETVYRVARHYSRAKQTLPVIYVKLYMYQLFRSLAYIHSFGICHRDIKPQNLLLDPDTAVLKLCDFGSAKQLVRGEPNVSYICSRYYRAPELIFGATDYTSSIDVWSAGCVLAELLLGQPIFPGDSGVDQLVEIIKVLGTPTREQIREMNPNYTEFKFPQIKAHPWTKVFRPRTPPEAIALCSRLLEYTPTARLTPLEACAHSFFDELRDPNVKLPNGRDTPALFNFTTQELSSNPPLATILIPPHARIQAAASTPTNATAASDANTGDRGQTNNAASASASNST
Summary of the method: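 Pyruvate kinase/lactate dehydrogenase-coupled NADH assay with 20 nM GSK-3β (AA 1-420), 20 μM ATP, 300 μM phosphopeptide HSSPHQS(PO3H2)EDEEE in HEPES pH 7.5, 1.5% DMSO, 30 °C. Compound (12 points, 0.002–30 μM) preincubated 10 min before ATP start; Ki derived from 10-min rates versus inhibitor concentration.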

SMILES | Ki (Aurora-2) [nM] | Ki (GSK-3β (AA 1-420)) [nM]
FC(F)(F)c1ccccc1-c1cc(Nc2nc[nH]n2)c2ccccc2n1 [IX-177, (1H-[1,2,4]triazol-3-yl)-[2-(2-trifluoromethyl-phenyl)-quinolin-4-yl]-amine] | 1000 to 20000 | 100 to 1000
Cc1cc(Nc2nc(-c3c(C)cccc3C)nc3ccccc23)n[nH]1 [II-38, [2-(2,6-Dimethylphenyl)-quinazolin-4-yl]-(5-methyl-2H-pyrazol-3-yl)-amine] | 100 to 1000 | < 100
C=CCNC(=O)c1cc(Nc2nc(-c3ccccc3)nc3ccccc23)[nH]n1 [III-82, (5-Allylcarbamoyl-2H-pyrazol-3-yl)-(2-phenyl-quinazolin-4-yl)-amine] | 1000 to 20000 | 100 to 1000
Cc1cc(Nc2nc(-c3cccc(C(F)(F)F)c3)nc3ccccc23)[nH]n1 [III-53, (5-Methyl-2H-pyrazol-3-yl)-[2-(3-trifluoromethylphenyl)-quinazolin-4-yl]-amine] | < 100 | < 100
Cc1cc(Nc2nc(-c3cc(C(F)(F)F)cc(C(F)(F)F)c3)nc3ccccc23)[nH]n1 [III-58, [2-(3,5-Ditrifluoromethylphenyl)-quinazolin-4-yl]-(5-methyl-2H-pyrazol-3-yl)-amine] | 100 to 1000 | < 100
CC(=O)c1cccc(-c2nc(Nc3cc(C)n[nH]3)c3ccccc3n2)c1 [III-57, [2-(3-Acetylphenyl)-quinazolin-4-yl]-(5-methyl-2H-pyrazol-3-yl)-amine] | < 100 | < 100
FC(F)(F)c1ccccc1-c1nc(Nc2n[nH]c3ccccc23)cc(-c2ccncc2)n1 [II-21, (1H-Indazol-3-yl)-[6-(pyridin-4-yl)-2-(2-trifluoromethyl-phenyl)-pyrimidin-4-yl]-amine] | 1000 to 20000 | < 100
Fc1cc(F)c2n[nH]c(Nc3nc(-c4ccccc4)nc4c3CCCC4)c2c1 [III-127, (5,7-Difluoro-1H-indazol-3-yl)-(2-phenyl-5,6,7,8-tetrahydroquinazolin-4-yl)-amine] | 1000 to 20000 | < 100
Clc1ccc(-c2nc(Nc3cc(C4CC4)n[nH]3)c3ccccc3n2)cc1Cl [III-46, (5-Cyclopropyl-2H-pyrazol-3-yl)-[2-(3,4-dichlorophenyl)-quinazolin-4-yl]-amine] | < 100 | < 100
COc1cccc2c(Nc3n[nH]c4ccc(F)cc34)nc(-c3ccccc3C(F)(F)F)nc12 [II-91, (5-Fluoro-1H-indazol-3-yl)-[8-methoxy-2-(2-trifluoromethyl-phenyl)-quinazolin-4-yl]-amine] | 1000 to 20000 | < 100
FC(F)(F)c1ccccc1-c1nc(Nc2nc[nH]n2)c2ccccc2n1 [IX-47, (2H-[1,2,4]-Triazol-3-yl)-[2-(2-trifluoromethylphenyl)-quinazolin-4-yl]-amine] | 1000 to 20000 | < 100
FC(F)(F)c1ccccc1-c1nc(Nc2n[nH]c3ncccc23)c2ccccc2n1 [II-99, (1H-Pyrazolo[3,4-b]pyridin-3-yl)-[2-(2-trifluoromethyl-phenyl)-quinazolin-4-yl]-amine] | 100 to 1000 | < 100
Cc1cc(Nc2cc(-c3ccco3)n[nH]2)nc(-c2ccccc2OC(F)(F)F)n1 [II-104, (5-Furan-2-yl-2H-pyrazol-3-yl)-[6-methyl-2-(2-trifluoromethoxy-phenyl)-pyrimidin-4-yl]-amine] | 1000 to 20000 | 100 to 1000

Results, then the molecule that gave them:

Ki (Aurora-2) [nM] | Ki (GSK-3β (AA 1-420)) [nM] | SMILES
100 to 1000 | < 100 | FC(F)(F)c1ccc2[nH]nc(Nc3nc(-c4ccccc4Cl)nc4ccccc34)c2c1 [II-77, [2-(2-Chloro-phenyl)-quinazolin-4-yl]-(5-trifluoromethyl-1H-indazol-3-yl)-amine]
1000 to 20000 | 100 to 1000 | Cc1cc(Nc2cc(-c3ccccc3)n[nH]2)nc(-c2ccccc2OC(F)(F)F)n1 [II-103, [6-Methyl-2-(2-trifluoromethoxy-phenyl)-pyrimidin-4-yl]-(5-phenyl-2H-pyrazol-3-yl)-amine]
1000 to 20000 | 100 to 1000 | FC(F)(F)c1cccc(-c2nc(Nc3[nH]nc4ccccc34)c3ccccc3n2)c1 [III-132, (1H-Indazol-3-yl)-[2-(3-trifluoromethyl-phenyl)-quinazolin-4-yl]-amine]
< 100 | < 100 | Cc1cc(Nc2nc(-c3ccccc3Cl)nc3ccccc23)n[nH]1 [II-36, [2-(2-Chlorophenyl)-quinazolin-4-yl]-(5-methyl-2H-pyrazol-3-yl)-amine]
100 to 1000 | < 100 | COc1cccc2c(Nc3n[nH]c4c(F)cc(F)cc34)nc(-c3ccccc3C(F)(F)F)nc12 [II-93, (5,7-Difluoro-1H-indazol-3-yl)-[8-methoxy-2-(2-trifluoromethyl-phenyl)-quinazolin-4-yl]-amine]
1000 to 20000 | < 100 | c1ccc2c(Nc3n[nH]c4ccccc34)nc(-n3ccnc3)nc2c1 [III-141, (2-imidazol-1-yl-quinazolin-4-yl)-(1H-indazol-3-yl)-amine]
< 100 | < 100 | Cc1cc(Nc2nc(-c3cccc(C)c3C)nc3ccccc23)n[nH]1 [II-40, [2-(2,3-Dimethylphenyl)-quinazolin-4-yl]-(5-methyl-2H-pyrazol-3-yl)-amine]
100 to 1000 | < 100 | FC(F)(F)c1ccc2[nH]nc(Nc3nc(-c4ccccc4C(F)(F)F)nc4ccccc34)c2c1 [II-64, (5-Trifluoromethyl-1H-indazol-3-yl)-[2-(2-trifluoromethyl-phenyl)-quinazolin-4-yl]-amine]
< 100 | < 100 | Cc1cc(Nc2nc(-c3cccc(C#N)c3)nc3ccccc23)[nH]n1 [III-54, [2-(3-Cyanophenyl)-quinazolin-4-yl]-(5-methyl-2H-pyrazol-3-yl)-amine]
1000 to 20000 | < 100 | FC(F)(F)c1ccccc1-c1nc(Nc2n[nH]c3cc(Br)ccc23)c2ccccc2n1 [II-82, (6-Bromo-1H-indazol-3-yl)-[2-(2-trifluoromethyl-phenyl)-quinazolin-4-yl]-amine]
< 100 | 100 to 1000 | Cc1cccc(-c2nc(Nc3cc(C)n[nH]3)c3ccccc3n2)c1 [III-50, [2-(3-Methylphenyl)-quinazolin-4-yl]-(5-methyl-2H-pyrazol-3-yl)-amine]
< 100 | < 100 | Cc1cc(Nc2nc(-c3ccccc3C)nc3ccccc23)n[nH]1 [II-33, (5-Methyl-2H-pyrazol-3-yl)-[2-(2-methylphenyl)-quinazolin-4-yl]-amine]
1000 to 20000 | 100 to 1000 | FC(F)(F)c1ccccc1-c1cc2ccccc2c(Nc2n[nH]c3ccccc23)n1 [Compound V-2, (1H-Indazol-3-yl)-[3-(2-trifluoromethyl-phenyl)-isoquinoline-1-yl]-amine]
< 100 | < 100 | CC1CCN(c2nc(Nc3cc(C4CC4)n[nH]3)c3nccc-3[nH]2)CC1 [IV-34, (5-Cyclopropyl-2H-pyrazol-3-yl)-[2-(4-methylpiperidin-1-yl)-pyrrolo[3,2-d]pyrimidin-4-yl]-amine]
1000 to 20000 | < 100 | Fc1cc(F)c2[nH]nc(Nc3nc(-c4ccccc4Cl)nc4ccccc34)c2c1 [II-76, [2-(2-Chloro-phenyl)-quinazolin-4-yl]-(5,7-difluoro-1H-indazol-3-yl)-amine]
100 to 1000 | < 100 | Cc1cc(Nc2nc(-c3ccccc3Cl)nc(C)c2C)n[nH]1 [II-1, [2-(2-Clorophenyl)-5,6-dimethylpyrimidin-4-yl]-(5-Methyl-2H-pyrazol-3-yl)-amine]
